Reference: US8124788B2, “Spirocyclic cyclohexane compounds with analgesic activity” (Gruenenthal GmbH, priority 2006, dated 2012)

target: T1, human μ opiate receptor (Homo sapiens, UniProt P35372); experiment: Affinity for the human μ opiate receptor ([3H]-naloxone displacement, CHO-K1 membrane preparation, SPA); type: binding; settings: 1 μM test substance; displacement of [3H]-naloxone
T1 construct: purchased PerkinElmer Life Sciences, Zaventem, Belgium RB-HOM; host or cells: CHO-K1 cells (recombinant expression)
Experimental: The receptor affinity for the human μ opiate receptor is determined in a homogeneous set-up in microtitre plates. For this purpose, dilution series of the substances to be tested are incubated with a receptor membrane preparation (15-40 μg of protein/250 μl of incubation batch) of CHO-K1 cells which express the human μ opiate receptor (RB-HOM receptor membrane preparation from PerkinElmer Life Sciences, Zaventem, Belgium) in the presence of 1 nmol/l of the radioactive ligand [^3H]-naloxone (NET719, PerkinElmer Life Sciences, Zaventem, Belgium) and 1 mg of WGA-SPA-Beads (wheat germ agglutinin SPA beads from Amersham/Pharmacia, Freiburg, Germany) in a total volume of 250 μl for 90 minutes at room temperature. 50 mmol/l of Tris-HCl supplemented with 0.06% of bovine serum albumin are used as the incubation buffer. 100 μmol/l of naloxone are additionally added for determination of the non-specific binding. After the end of the ninety-minute incubation time, the microtitre plates are centrifuged for 20 minutes at 1,000 g and the radioactivity is measured in a β-counter (Microbeta-Trilum, PerkinElmer Wallac, Freiburg, Germany). The percentage displacement of the radioactive ligand from its binding to the human μ opiate receptor is determined at a concentration of the test substances of 1 μmol/l and stated as the percentage inhibition of the specific binding. Starting from the percentage displacement by various concentrations of the test substances, IC50 inhibitory concentrations which cause a 50 percent displacement of the radioactive ligand are calculated. By conversion by means of the Cheng-Prusoff relationship, Ki values for the test substances are obtained.

T1 sequence (P35372 whole entry): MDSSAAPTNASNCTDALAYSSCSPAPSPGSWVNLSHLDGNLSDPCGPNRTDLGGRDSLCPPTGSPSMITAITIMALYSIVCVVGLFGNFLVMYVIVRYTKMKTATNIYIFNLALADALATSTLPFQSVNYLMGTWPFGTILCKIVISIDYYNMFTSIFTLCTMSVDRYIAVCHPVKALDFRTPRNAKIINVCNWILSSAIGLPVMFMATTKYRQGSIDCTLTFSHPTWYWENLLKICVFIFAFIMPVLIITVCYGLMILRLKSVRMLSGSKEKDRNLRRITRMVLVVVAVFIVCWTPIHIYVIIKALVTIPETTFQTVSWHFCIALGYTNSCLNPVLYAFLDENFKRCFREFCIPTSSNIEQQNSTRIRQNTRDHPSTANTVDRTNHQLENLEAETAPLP

Structure (SMILES) | μ opioid receptor [1 μM], % inhibition [%]
Cc1ccc2[nH]c3c(c2c1)CC(C)OC31CCC(C(CCc2ccccc2)N(C)C)CC1 (stereo not shown) [Compound 43, 3,6-Dimethyl-1,1-[3-(dimethylamino-(phenylethyl)-methyl)-pentamethylene]-1,3,4,9-tetrahydropyrano[3,4-b]indole] | 42
CC1Cc2c([nH]c3ccc(F)cc23)C2(CCC(C(c3ccc(Cl)cc3)N(C)C)CC2)O1 (stereo not shown) [Compound 55, 6-Fluoro-3-methyl-1,1-[3-(dimethylamino-(4-chlorophenyl) -methyl)-penta-methylene]-1,3,4,9-tetrahydropyrano[3,4-b]indole] | 58

same assay, conditions: 1 μM test substance; displacement of [3H]-naloxone; read-out: μ opioid receptor [1 μM], % inhibition

Structure (SMILES) | inhibition at 1 µM [%]
CN(C)C(c1cccc(F)c1)C1CCC2(CC1)OCCc1c2[nH]c2ccc(F)cc12 (stereo not shown) [Compound 36, 6-Fluoro-1,1-[3-(dimethylamino-(3-fluorophenyl)-methyl)-pentamethylene]-1,3,4,9-tetrahydropyrano[3,4-b]indole] | 102

same assay, conditions: Cheng-Prusoff conversion from IC50; read-out: μ opioid receptor, Ki

Structure (SMILES) | Ki [µM]
CN(C)C(c1cccc(F)c1)C1CCC2(CC1)OCCc1c2[nH]c2ccc(F)cc12 (stereo not shown) [Compound 36, 6-Fluoro-1,1-[3-(dimethylamino-(3-fluorophenyl)-methyl)-pentamethylene]-1,3,4,9-tetrahydropyrano[3,4-b]indole] | 0.046

same assay, conditions: compounds prepared via automated synthesis; single measurements at a test concentration of 1 μM

Structure (SMILES) | μ opioid receptor [1 μmol], % inhibition [%]
CN(C)C(c1ccccc1)C1CCC2(CC1)c1[nH]c3ccccc3c1CCN2C(=O)CC(C)(C)C (stereo not shown) [Compound 56, 1-{1,1-[3-(dimethylamino-phenylmethyl)-pentamethylene]-3,4-dihydro-1H-2,9-diazafluoren-2-yl}-3,3-dimethylbutan-1-one] | 36
COc1ccc(CC(=O)N2CCc3c([nH]c4ccccc34)C23CCC(C(c2ccccc2)N(C)C)CC3)cc1OC (stereo not shown) [Compound 57, 2-[(3,4-dimethoxyphenyl)acetyl]-{1,1-[3-(dimethylamino-phenylmethyl)-pentamethylene]-3,4-dihydro-1H-2,9-diazafluorene}] | 55
CC(=Cc1ccccc1)C(=O)N1CCc2c([nH]c3ccccc23)C12CCC(C(c1ccccc1)N(C)C)CC2 (stereo not shown) [Compound 58, 1-{1,1-[3-(dimethylamino-phenylmethyl)-pentamethylene]-3,4-dihydro-1H-2,9-diazafluoren-2-yl}-2-methyl-3-phenylprop-2-en-1-one] | 50
CN(C)C(c1ccccc1)C1CCC2(CC1)c1[nH]c3ccccc3c1CCN2C(=O)C1CCCCC1 (stereo not shown) [Compound 59, 2-(cyclohexylcarbonyl)-{1,1-[3-(dimethylamino-phenylmethyl)-pentamethylene]-3,4-dihydro-1H-2,9-diazafluorene}] | 29
CN(C)C(c1ccccc1)C1CCC2(CC1)c1[nH]c3ccccc3c1CCN2C(=O)COc1ccc(Cl)cc1 (stereo not shown) [Compound 60, 2-[(4-chlorophenoxy)acetyl]-{1,1-[3-(dimethylamino-phenylmethyl)-pentamethylene]-3,4-dihydro-1H-2,9-diazafluorene}] | 26
CN(C)C(c1ccccc1)C1CCC2(CC1)c1[nH]c3ccccc3c1CCN2C(=O)C=Cc1ccccc1Cl (stereo not shown) [Compound 61, 1-{1,1-[3-(dimethylamino-phenylmethyl)-pentamethylene]-3,4-dihydro-1H-2,9-diazafluoren-2-yl}-3-(2-chlorophenyl)prop-2-en-1-one] | 6
CN(C)C(c1ccc(F)cc1)C1CCC2(CC1)c1[nH]c3ccccc3c1CCN2C(=O)CC(C)(C)C (stereo not shown) [Compound 62, 1-{1,1-[3-(dimethylamino-(4-fluorophenyl)methyl) -pentamethylene]-3,4-dihydro-1H-2,9-diazafluoren-2-yl}-3,3-dimethylbutan-1-one] | 12
COc1ccc(CC(=O)N2CCc3c([nH]c4ccccc34)C23CCC(C(c2ccc(F)cc2)N(C)C)CC3)cc1OC (stereo not shown) [Compound 63, 2-[(3,4-dimethoxyphenyl)acetyl]-{1,1-[3-(dimethylamino-(4-fluorophenyl)methyl)-pentamethylene]-3,4-dihydro-1H-2,9-diazafluorene}] | 29
CC(=Cc1ccccc1)C(=O)N1CCc2c([nH]c3ccccc23)C12CCC(C(c1ccc(F)cc1)N(C)C)CC2 (stereo not shown) [Compound 64, 1-{1,1-[3-(dimethylamino-(4-fluorophenyl)methyl) -pentamethylene]-3,4-dihydro-1H-2,9-diazafluoren-2-yl}-2-methyl-3-phenylprop-2-en-1-one] | 15
